Values of other authors as cited in patent US20230000917A1, “TREATMENT OF HEPATITIS B VIRUS (HBV) INFECTION” (UCL BUSINESS LTD, priority 2019, published 2023).

Experiments:
[1] = in vivo
[2] = in vivo; remark: listed apart in the source
[3] = test system: macrophage foam cell formation and atherosclerosis progression; conditions: oral administration, animal models

oral bioavailability [2]	SMILES	plasma VLDL-cholesterol [1]	plasma total triglyceride [1]	macrophage foam cell formation and atherosclerosis progression [3]
orally bioavailable	CC(C)c1cc(C(C)C)c(CC(=O)NS(=O)(=O)Oc2c(C(C)C)cccc2C(C)C)c(C(C)C)c1 [Avasimibe]	significantly reduce	significantly reduce	–
–	CSc1cc(C)nc(SC)c1NC(=O)CN1CCN(CCSc2nc3ccccc3[nH]2)CC1.Cl.Cl [K604, 4-[2-(1H-Benzimidazol-2-ylthio)ethyl]-N-[6-methyl-2,4-bis(methylthio)-3-pyridinyl]-1-piperazineacetamide dihydrochloride]	–	–	promising results
